Assay results as given in patent publication US20100099642A1, “TGF-BETA STIMULANT AND FURTHER AGENT TO REDUCE SIDE EFFECTS” (TCP Innovations Limited, priority 2007, published 2010).
Marks after values point to notes of the source that are not given here.

How the values were obtained:
tgfb2 mRNA = tgfb2 mRNA level by quantitative PCR in human aortic vascular smooth muscle cells; format: cell-based; conditions: 24 hrs, normalised to TBP, vs vehicle
Method: (1995) Cardiovasc. Res. 29:848-55). […] The cells were then incubated for either 24 hrs or 72 hrs depending on the experiment. All treatment conditions were established in triplicate. The level of mRNA for tgfb1, tgfb2 and tgfb3 were estimated by quantitative PCR. The media was removed and RNA was carefully prepared using the Ambion RNAqueous4PCR kit (Ambion#1914) in accordance with the manufacturer's instructions. The purity of the RNA and the quantity was assessed spectrophotometrically. […] This analysis results in both a gel-like image as well as electrophoretic data. Indications of RNA degradation are: (a) decreasing ratio of ribosomal bands (b) additional peaks bellow the ribosomal bands (c) Decrease in overall RNA signal (d) shift towards shorter fragments. […] Next, the RNA was converted to cDNA using the ABI High-Capacity cDNA Archive Kit, in accordance with manufacturer's instructions. The qPCR assay was then set up as follow: all cDNA samples were diluted to 180 μl total volume using Molecular grade water. Samples were vortexed to ensure thorough mixing. cDNA was aliquoted into ABI 384 well plates using a multi-channel pipette, 4.5 μl of sample into each well. Samples were assayed in triplicate (that is, nine determinations in total were made for each condition, being three separate assays on each of three replicate culture wells). The assay mix and Universal Master Mix were prepared and aliquoted across the 384 well plates 5.5 μl in each well, using a single channel pipette. The final composition of each reaction (10 μl) being: Primer/Probe assay mix (×20)=0.5 μl; Universal Master Mix=5 μl; cDNA=4.5 μl. […] Quantitative PCR was performed using several primer/probe sets. […] In all quantitative PCR experiments, several additional controls were included: firstly, a control for each sample is run with no reverse transcription to ensure the mRNA sample is not contaminated with genomic DNA (although the manual design probe/primer sets were all selected to cross an exon/exon boundary, ensuring no detectable amplicon is produced from genomic DNA templates). […]

[1] = system: anti-carbohydrate antibodies; assay: anti-carbohydrate antibody isotypes by direct ELISA in serum of men with coronary artery disease; format: in vivo, human; conditions: 3 months, Tamoxifen 20 mg once daily, aspirin 75 mg once daily, mean ± SD
Method: (§1) Patients continued with all other medications (statins, ACE inhibitors, beta blockers, calcium channel blockers, diuretics etc), but no patients were taking warfarin or tirofiban.
The level of anti-carbohydrate antibodies was measured by direct ELISA as previously described (Mosedale et al (2006) J. Immunol. Meth. 309:182-91). […] After a final 3 washes in PBS/Tween and single wash in PBS, 200 μl of K-blue chromogenic substrate was added to each well.
as §1
The level of anti-carbohydrate antibodies was then measured by direct ELISA using the procedure given in Example 5

[2] = system: anti-collagen type II antibodies; assay: direct ELISA for anti-collagen type II antibodies in serum of collagen-induced arthritis mice; format: in vivo, mouse; conditions: day 39, TMX 1 mg/kg/day, aspirin 30 mg/kg/day
Method: (1980) Nature 283:666-8). Adult (12 week old) male DBA/1 mice were divided into groups of six animals. […] Foodpad thickness was determined each day using a digital caliper EC1507 (Moore & Wright) accurate to 0.01 mm. The thickness of each footpad was determined three times on each day by a single operator blind to the treatment condition of the mouse, and the footpad thickness of each mouse on each day was reported as the mean for the three measurements for all four paws. Errors represent the standard error of the mean among the six animals in each group. A direct ELISA for anti-collagen type II antibodies was used as an alternative assessment of the autoimmune response.

| SMILES | Level of tgfb2 mRNA, estimated by qPCR (tgfb2 mRNA; 10 μM A) | Level of tgfb2 mRNA, estimated by qPCR (tgfb2 mRNA; 33 μM A) | Level of tgfb2 mRNA, estimated by qPCR (tgfb2 mRNA; 100 μM A) | IgG2 titre, change versus baseline [1] | IgG2 Absorbance, change versus baseline ([1]; neat serum) | Pan IgG against bovine collagen II, median concentration in serum [2] | IgG1 against bovine collagen II, median absorbance from the direct ELISA ([2]; neat serum) | IgG2a against bovine collagen II, median absorbance from the direct ELISA ([2]; neat serum) | IgG2b against bovine collagen II, median absorbance from the direct ELISA ([2]; neat serum) | IgG3 against bovine collagen II, median absorbance from the direct ELISA ([2]; neat serum) |
| --- | --- | --- | --- | --- | --- | --- | --- | --- | --- | --- |
| CC(=O)Oc1ccccc1C(=O)O [Aspirin, acetylsalicylic acid] | 0.92 ± 0.10 fold-change | 1.00 ± 0.17 fold-change | 1.03 ± 0.16 fold-change | – | – | – | – | – | – | – |
| CC/C(=C(\c1ccccc1)c1ccc(OCCN(C)C)cc1)c1ccccc1 [Tamoxifen] | – | – | – | +176% ± 43% | +0.61 ± 0.17 | 181 µg/mL | <0.05* | 0.081* | 0.482* | 0.069* |
